According to patent US8377944B2, “Thienopyrimidine derivatives” (ASKA Pharmaceutical Co., Ltd., priority 2005, dated 2013):

Assays:
[1] = biological target: T1, human recombinant PDE9 protein (Homo sapiens, UniProt O76083); assay: Measurement of PDE9-inhibiting activity; assay type: biochemical; details: human recombinant PDE9, [3H]-cGMP substrate; read-out: Inhibitory Activity (IC50 value) PDE 9
T1 construct: made in house; host or cells: COS-1 cells, transient transfection of pcDNA 3.1(+); supernatant of the cell homogenate
T1 sequence (O76083 whole entry): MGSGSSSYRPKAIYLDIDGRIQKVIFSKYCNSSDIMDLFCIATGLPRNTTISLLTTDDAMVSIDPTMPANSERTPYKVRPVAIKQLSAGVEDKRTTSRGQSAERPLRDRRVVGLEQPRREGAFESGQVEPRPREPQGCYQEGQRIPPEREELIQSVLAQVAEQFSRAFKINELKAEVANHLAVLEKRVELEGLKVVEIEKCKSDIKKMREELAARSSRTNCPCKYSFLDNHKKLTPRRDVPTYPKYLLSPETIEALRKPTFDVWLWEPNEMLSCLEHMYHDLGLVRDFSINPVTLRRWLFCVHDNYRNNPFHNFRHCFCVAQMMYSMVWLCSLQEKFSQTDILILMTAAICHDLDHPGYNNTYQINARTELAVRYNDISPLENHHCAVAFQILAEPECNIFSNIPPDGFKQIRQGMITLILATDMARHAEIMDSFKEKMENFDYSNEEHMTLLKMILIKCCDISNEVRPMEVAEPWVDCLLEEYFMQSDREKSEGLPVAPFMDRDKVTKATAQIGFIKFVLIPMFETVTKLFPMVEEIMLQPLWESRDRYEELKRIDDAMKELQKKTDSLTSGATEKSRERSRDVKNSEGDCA
Text: (1) Measurement of PDE9-Inhibiting Activity:
1) Preparation of Human Recombinant PDE9 Protein
Based on the base sequence of hsPDE9A1 registered with GenBank database (accession No.: AF048837), hsPDE9A1 fragment was amplified by polymerase chain reaction under the following conditions, using the following sequence (Amasham Pharmacia Biotech) as the primer and Human Prostate […] cDNA library (CLONTECH) as the template DNA, with Pfu Turbo DNA polymerase ([…]):
hPDE9-5A primer: […] [SEQ ID NO: 1]
hPDE9-3A primer: […] [SEQ ID NO: 2]
PCR condition: [95° C., 5 min]×1 cycle, [(95° C., 1 min), (58° C., 2 min), (72° C., 3 min)]×25 cycle, [72° C., 10 min]×1 cycle
Thus obtained hsPDE9A1 fragment was given a restricted enzymatic treatment with NheI and NotI, and thereafter inserted into pcDNA 3.1(+) expression vector (Invitrogen) to let it serve as a human PDE9 expression vector.
Human PDE9 expression vector-transformed Escherichia coli was mass incubated to produce a large amount of PDE9 expression vector, which was transiently transfected into COS-1 cells, with LIPOFECTAMINE 2000 Reagent (GIBCO). […]
To 150 μL of buffer B (70 mmol/L Tris-HCl, pH7.5; 16.7 mmol/L MgCl2, 33.3 nmol/L [^3H]-cGMP) solution containing [^3H]-cGMP (specific activity=244.2 GBq/mmol) at a concentration of 33.3 nmol/L, 50 μL of a solution of the compound to be evaluated (formed by dissolving the compound in DMSO and diluting it with distilled water to DMSO concentration of 5%) and 50 μL of the PDE9 protein solution as prepared in the above, as diluted with buffer C (40 mmol/L Tris-HCl, pH7.5, 15 mmol/L benzamidine, 15 mmol/L 2-mercaptoethanol, 1 μg/mL Pepstatin A, 1 μg/mL Leupeptin) by 1,500×, were added under cooling with ice. […] Thereafter [^3H]-guanosine was eluted with 3 mL of 3 mol/L aqueous ammonia and its radiation activity was measured with liquid scintillation counter.
PDE9 inhibition of the tested compound can be calculated by the following formula: […]
From the inhibition ratios at various concentration levels of each tested compound, its IC50 value against PDE9 was determined.

[2] = biological target: T2, human recombinant PDE5 protein (Homo sapiens, UniProt O76074); assay: Measurement of PDE5-inhibiting activity; assay type: biochemical; details: human recombinant PDE5, [3H]-cGMP substrate; read-out: Inhibitory Activity (IC50 value) PDE 5
T2 construct: made in house; host or cells: COS-1 cells, transient transfection of pcDNA 3.1(+); supernatant of the cell homogenate
Text: (2) Measurement of PDE5-Inhibiting Activity:
1) Preparation of Human Recombinant PDE5 Protein
Based on the base sequence of hsPDE5A1 registered with GenBank database (accession No.: NM_001083), hsPDE5A1 fragment was amplified by polymerase chain reaction under the following conditions, using the following sequence (SIGMA GENOSYS) as the primer and Human Prostate […] cDNA library (CLONTECH) as the template DNA, with KDD plus DNA polymerase (TOYOBO): […]
hPDE5-5′E primer: […] [SEQ ID NO: 3] […]
hPDE5-3′ primer: […] [SEQ ID NO: 4]
PCR condition: [94° C., 2 min]×1 cycle, [(94° C., 30 sec), (65° C., 30 sec), (68° C., 3 min)]×25 cycle, [68° C., 6 min]×1 cycle Thus obtained hsPDE5A1 fragment was given a restricted enzymatic treatment with XBaI and EcoRI, and thereafter inserted into pcDNA 3.1(+) expression vector (Invitrogen) to let it serve as a human PDE5 expression vector.
Human PDE5 expression vector-transformed Escherichia coli was mass incubated to produce a large amount of PDE5 expression vector, which was transiently transfected into COS-1 cells, with LIPOFECTAMINE 2000 Reagent (GIBCO). The cells were homogenized in ice-cooled buffer A and centrifuged at 4° C., 14,000×g for 10 minutes. The supernatant was isolated to provide human recombinant PDE5 protein solution.
2) Measurement of PDE5-Inhibiting Activity
By a method similar to the measurement of PDE9-inhibiting activity, PDE5-inhibiting activity of the test compounds was measured, their inhibition was calculated and IC50 value to PDE5 of each of the compounds was determined. The results are shown in the following Table A, concurrently with the compounds' IC50 values against PDE9.

In the case of `Cc1c(C(=O)O)sc2nc(Cc3ccc(F)c(Cl)c3)[nH]c(=O)c12` [Example 52, 2-(3-Chloro-4-fluorobenzyl)-5-methyl-4-oxo-3,4-dihydrothieno[2,3-d]pyrimidine-6-carboxylic acid], the IC50 [1] is reported as 38 nM and the IC50 [2] is reported as 3420 nM.
